The target in experiment [1] is T1, FGM (FAD-GDH-MCD): Burkholderia cepacia FAD-GDH alpha subunit fused to minimal cytochrome domain MCR-2 of MamP (magnetoovoid bacterium MO-127), full DNA constru (Burkholderia lata, UniProt Q397F4).
T1 construct: gamma co-expressed; E. coli BL21
It counts as biochemical.

Experiment [2] concerns the target FGM-S247PDAz: FGM (Burkholderia cepacia FAD-GDH-MCD) variant S247PrK (S247X, SEQ ID NO: 20), clicked to PDAz linker (Burkholderia lata, UniProt Q397F4). The settings on record: read-out: KM^app (electrochemical); glucose; 300 mV vs. Ag/AgCl, 100 mM acetate buffer pH=5.0, RT; non-linear fit. How it is done: (§1) The current from each glucose concentration (10 μM-10 mM) was measured in triplicates; curves of the mean currents are presented with standard deviations. […] The current was measured in triplicates and the mean current values were used for the linear regression and are presented with error bars (FIG. 18H);
(§2) Pyrrolysyl orthogonal translation system (pylOTS) DNA sequence was amplified from the pEVOL plasmid using polymerase chain reaction (PCR) and cloned into the backbone of pec86 plasmid using Gibson's assembly to generate a new plasmid called pec86-pylOTS (FIG. 15A). pylOTS allows the continuous expression of an orthogonal translation system (orthogonal tRNA and aminoacyl tRNA synthetase) for incorporation of PrK (1) using the amber (TAG) stop codon suppression, while the pec86 plasmid is responsible for the continuous expression of E. coli cytochrome c maturation system. […] Four different TAG mutants were planned using site-directed mutagenesis, according to GDH crystal structure. Our guiding rational for mutation sites was to control the enzyme orientation in a manner that will allow proximity of 14 Å or less between the FAD or heme site and the electrode, without interference with the protein structure and correct folding. The sites that were tested were R42TAG and S247TAG, which are in close proximity to the FAD binding-site, while T558TAG (FIG. 11C, right panel) is in a close proximity to the heme domain.
(§3) The azide in (2) was clicked to the alkyne residue of (FIG. 11B, 1). 3 μM of protein sample was mixed with 400 μM (2), 2 mM tris pH=8.2, 10 mM KCl, 1 mM Cu(I), 1.2 mM THPTA, 2.5 mM NaAsc and 10% Dimethyl sulfoxide (DMSO). The reaction was incubated for 1 h in the dark at room temperature with shaking, then transferred to 4° C. for two days before use.

The target in experiment [3] is FGM-S247PCA: FGM (Burkholderia cepacia FAD-GDH-MCD) variant S247PrK (S247X, SEQ ID NO: 20), EDC-NHS coupled to PCA linker (Burkholderia lata, UniProt Q397F4). The settings on record: read-out: KM^app (electrochemical); glucose; 300 mV vs. Ag/AgCl, 100 mM acetate buffer pH=5.0, RT; non-linear fit. As for the experimental part: as §1, §2, §3
Experiment [4] relates to FGM-T558PDAz: FGM (Burkholderia cepacia FAD-GDH-MCD) variant T558PrK (T558X, SEQ ID NO: 22), clicked to PDAz linker. Particulars: read-out: KM^app (electrochemical); glucose; 300 mV vs. Ag/AgCl, 100 mM acetate buffer pH=5.0, RT; non-linear fit. How it is done: as §1, §2, §3
For experiment [5], the target named is GDH-S247PDAz: Burkholderia cepacia FAD-GDH variant S247PrK lacking the MCD domain, clicked to PDAz linker (Burkholderia lata, UniProt Q397F4). The settings on record: read-out: KM^app (electrochemical); glucose; 300 mV vs. Ag/AgCl, 100 mM acetate buffer pH=5.0, RT; non-linear fit. As for the experimental part: as §1, §2, §3

Each structure is given as a SMILES string.

By Km is commonly meant the concentration of substrate that gives half-maximal velocity. As for `OC[C@H]1OC(O)[C@H](O)[C@@H](O)[C@@H]1O` (stereo partly drawn) [glucose], the “KM^app value times higher for FGM compared to GDH” value in experiment [1] is on record as “ca. 3 times”. Moreover, the “catalytic efficiency (k) times higher compared to GDH” value in experiment [1] (FGM compared to GDH, D-glucose) is “more than 3 times”. The Km in experiment [2] turned out to be 1890 ± 100 µM; in experiment [3] it was 1820 ± 180 µM; in experiment [4], 1580 ± 220 µM; in experiment [5], 1550 ± 160 µM.

The values are drawn from patent publication US12359238B2 (priority 2017, dated 2025).
